According to patent US5086047A, “Novel steroids” (Roussel Uclaf, Department des Brevets, priority 1989, dated 1992):
Like-named read-outs stand apart in the source and are kept apart here.

Tests used:
seric estradiol = test: Amount of estradiol circulating in rats induced with P.M.S.G.; assay type: in vivo, rat; conditions: female rats, PMSG 100 I.U., ** p<0.01
Description: I-AMOUNT OF ESTRADIOL CIRCULATING IN RATS INDUCED WITH P.M.S.G.
(Pregnant Mare Serum Gonadotrophine)
Female rats weighing 150 g were induced by an injection of P.M.S.G. (100 I.U./rat/sc). After 90 hours, the animals were treated with the product under test (sc or po) and a blood sample was taken before and after treatment to measure the amount of seric estradiol.
DO, -90 h: injection of 100 I.U. of PMSG/rat.
DO, 0 h: sample of blood from […] then treatment with the product under test.
DO, +2 h: sample of blood.
DO, +6 h: killing of animals and collection of blood.
After coagulation and centrifugation of the blood, the serum was recovered which was dosed with estradiol (E2) by means of an RIA dosage kit (Baxter ER155). The results were expressed as a percentage variation relative to the amount of estradiol at time 0 (each animal is its own control). The statistical test used is the Mann-Whitney U-test (*:p<0.05; **:p<0.01).

[1] = target: T1, aromatase (cytochrome P450 aromatase) (Homo sapiens, UniProt P11511); test: Aromatase inhibition in vitro, human placental microsomes, tritiated water release from 1β,2β-(H^3)-Androstenedione; assay type: biochemical
T1 construct: This supernatant was then subjected to an ultra-centrifugation stage (90 minutes, 150,000 g) to obtain the microsomal deposit; from tissue; host or cells: human placenta, microsomal fraction
T1 sequence (P11511 1-503): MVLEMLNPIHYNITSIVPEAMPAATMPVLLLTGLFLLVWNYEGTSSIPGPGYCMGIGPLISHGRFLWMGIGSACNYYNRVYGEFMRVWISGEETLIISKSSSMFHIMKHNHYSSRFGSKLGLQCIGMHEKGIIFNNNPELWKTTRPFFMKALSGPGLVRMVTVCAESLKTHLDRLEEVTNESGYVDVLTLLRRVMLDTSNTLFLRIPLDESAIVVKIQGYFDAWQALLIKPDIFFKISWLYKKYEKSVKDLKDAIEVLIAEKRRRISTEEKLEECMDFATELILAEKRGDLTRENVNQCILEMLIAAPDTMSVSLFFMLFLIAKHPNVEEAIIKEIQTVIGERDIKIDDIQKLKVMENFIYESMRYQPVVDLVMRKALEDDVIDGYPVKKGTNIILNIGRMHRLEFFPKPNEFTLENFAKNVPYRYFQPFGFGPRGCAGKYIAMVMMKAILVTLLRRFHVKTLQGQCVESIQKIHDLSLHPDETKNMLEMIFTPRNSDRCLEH
Description: Inhibition dependent on the concentration (measurement of the IC50 =concentration of the inhibitor necessary to reduce the enzymatic activity by 50%).
Human placentas were used which were washed one hour at most after delivery, perfused with physiological serum (5 liters) via the umbilical vein and then deep-frozen at -40° C.
The placentas were thawed at 4° C. and then homogenized (1:3) in a 10 mM phosphate buffer, pH=7.0 containing 100 millimoles of potassium chloride (KCl), 10 millimoles of dithiothreitol (DTT), 10 millimoles of ethylenediamine-tetraacetic acid (EDTA), 40 millimoles of nicotinamide and 250 millimoles of sucrose. The homogenates were then subjected to different phases of centrifugation until the "9000 g" supernatant was obtained (corresponding to cytosol and to endoplasmic reticulum). This supernatant was then subjected to an ultra-centrifugation stage (90 minutes, 150,000 g) to obtain the microsomal deposit. The microsomes were then resuspended in a 50 mM phosphate buffer, pH=7.4, containing 100 millimoles KCl, 1 millimole EDTA, 1 millimole DTT and glycerol (10%). The microsomal suspension was aliquoted and the fractions deep-frozen at the temperature of liquid nitrogen. The concentration of proteins in the microsomal suspension was determined by the BRADFORD method (BRADFORD., Anal. Biochem., Vol. 72, (1976) 248).
To 960 microliters of phosphate buffer (50 millimoles, pH=7.2) 2.5 millimoles glucose-6-phosphate, and containing 0.16 international units of glucose-6-phosphate dehydrogenase (G-6-PDH), the following were added in this order:
1) -10 microliters of inhibitor solubilized in dimethyl-sulfoxide (DMSO) to give final concentrations from 10^-5 M to 10^-10 M.
2) -10 microliters of substrate which was 500 nM Androstenedione solubilized in ethanol and containing 1β,- 2β-(H^3)-Androstenedione in a known isotopic dilution (approx. 200,000 disintegrations per minute).
3) 10 microliters of microsomal suspension equivalent to 25 micrograms of proteins per test.
The enzymatic reaction was then very rapidly initiated by the addition of 10 microliters of reduced nicotinamide adenine dinucleotide phosphate (NADPH) solubilized in water. After stirring, each test was incubated at 37° C. for 10 minutes. The reaction was then stopped by the addition of chloroform (4 ml).
After vigorous stirring of the tubes, they were decanted and centrifuged at 4° C. for 10 minutes at a speed of 3000 r.p.m. (rotations per minute), that is 600 X g. After centrifuging, and for each tube, 100 microliters of supernatant was removed and counted in the presence of a scintillating liquid. This method was derived from the procedures described by Reed et al, (J. Biol. Chem., Vol. 251, (1976), p. 1625) and Thompson et al, (J. Biol. Chem., Vol. 249, (1974), p. 5364). The enzymatic activity (aromatase) was proportional to the percentage of tritium salted out in the form of tritiated water (H^3 20) in the course of the reaction. The inhibition obtained for each concentration of each inhibiting product of the invention was calculated as a percentage of the controls (arbitrary 100%, obtained in the absence of any inhibitor). The CI50 was equal to the concentration of inhibitor necessary to decrease the enzymatic activity by 50% and the values of the CI50 's obtained for the inhibiting products of the invention are as follows: […]

[2] = Parenterally (so in the source), 5 mg/kg
[3] = human placental microsomes, Androstenedione 500 nM, 37° C., 10 minutes, read-out: CI50 (concentration of inhibitor necessary to decrease the enzymatic activity by 50%)

Row | Compound | percentage variation relative to the amount of estradiol at time 0, +2 h (seric estradiol; [2]) [percentage variation] | percentage variation relative to the amount of estradiol at time 0, +6 h (seric estradiol; [2]) [percentage variation] | IC50 [1, 3] [nM] | IC50 [1] [nM] | percentage variation relative to the amount of estradiol at time 0, +2 h (seric estradiol; Subcutaneously, 1 mg/kg) [percentage variation] | percentage variation relative to the amount of estradiol at time 0, +6 h (seric estradiol; Subcutaneously, 1 mg/kg) [percentage variation]
1 | CSCC[C@]12CC[C@@H](O)C=C1CC[C@@H]1C2=CC[C@]2(C)[C@@H](O)CC[C@@H]12 [Example 26 (3 alpha OH)] | -53 | -53 | – | – | – | –
2 | CCSCC[C@]12CCC(=O)C=C1CC[C@@H]1C2=CC[C@]2(C)C(=O)CC[C@@H]12 [Example 2] | – | – | 870 | – | – | –
3 | CSCC[C@]12CCC(=O)C=C1CC[C@@H]1C2=CC[C@]2(C)C(=O)CC[C@@H]12 [Example 1, 10β-[2-(methylthio)-ethyl]-Δ^4,9(11) -estradiene-3,17-dione] | -51 | -51 | – | 20 | -55 | -68
4 | CSCC[C@]12CC[C@H](O)C=C1CC[C@@H]1C2=CC[C@]2(C)[C@@H](O)CC[C@@H]12 [26 (3 beta OH), 10β-[2-(methylthio)-ethyl]-Δ^4,9(11) estradien-3β,17β-diol] | -63 | -64 | 165 | – | – | –
5 | CSCC[C@]12CCC(=O)C=C1CC[C@@H]1C2=CC[C@]2(C)[C@@H](O)CC[C@@H]12 [Example 13, 10β-[2-(methylthio)-ethyl]-Δ^4,9(11) -estradien-17-ol-3-one] | -70 | -53 | 50 | – | -56 | -60
6 | C[C@]12CC=C3[C@@H](CCC4=CC(=O)CC[C@@]43CCSCF)[C@@H]1CCC2=O [Example 22] | – | – | 500 | – | – | –
7 | CSCC[C@]12CCC(=O)C=C1CC[C@@H]1C2=CC[C@]2(C)[C@@H](OC(=O)CCC(=O)O)CC[C@@H]12 [Example 27, Butanedioate of 10β-[2-(methylthio)-ethyl]-3-oxo-Δ^4,9(11) -estradien-17β-yl and of sodium] | -58 | -45 | – | – | -56 | -20
8 | C#CSCC[C@]12CCC(=O)C=C1CC[C@@H]1C2=CC[C@]2(C)C(=O)CC[C@@H]12 [Example 21, 10β-[2-(ethynylthio)-ethyl]-Δ^4,9(11) -estradiene-3,17-dione] | – | – | 330 | – | – | –
9 | CSCC[C@]12CCC(=O)CC1CC[C@@H]1C2=CC[C@]2(C)C(=O)CC[C@@H]12 (stereo partly drawn) [Example 31, 10β-[2-(methylthio)-ethyl]-Δ^9(11) -estren-3,17-dione] | -69 | -56 | 5.5 | – | – | –
